Patent US8039233B2, “Nucleic acid sequences and their use in methods to identify umami modulatiors” (Givaudan S.A., priority 2007, dated 2011)
Entries after “also recorded” stand apart in the source; their conditions may differ.

How the values were obtained:
hCaSR = target: T1, hCaSR (Homo sapiens, UniProt P41180, E1011Q); assay: Fluo-4 calcium assay, cells transfected with hCaSR; format: cell-based; details: Calcium Chloride 2 mM, 745047-97-6 25 μM, MSG 2.5 mM + IMP 0.2 mM; for hCaSR AVG (mean ΔF/F): HEK293T/Gα16-gustducin 44 cells, six replicates
T1 construct: For hCaSR, a commercially available pCMV-based vector construct which is based on the full length cDNA was used; host or cells: HEK293T cells stably expressing Galpha16-gustducin 44, transiently transfected with 75 ng of vector
T1 sequence (P41180 20-1078 E1011Q): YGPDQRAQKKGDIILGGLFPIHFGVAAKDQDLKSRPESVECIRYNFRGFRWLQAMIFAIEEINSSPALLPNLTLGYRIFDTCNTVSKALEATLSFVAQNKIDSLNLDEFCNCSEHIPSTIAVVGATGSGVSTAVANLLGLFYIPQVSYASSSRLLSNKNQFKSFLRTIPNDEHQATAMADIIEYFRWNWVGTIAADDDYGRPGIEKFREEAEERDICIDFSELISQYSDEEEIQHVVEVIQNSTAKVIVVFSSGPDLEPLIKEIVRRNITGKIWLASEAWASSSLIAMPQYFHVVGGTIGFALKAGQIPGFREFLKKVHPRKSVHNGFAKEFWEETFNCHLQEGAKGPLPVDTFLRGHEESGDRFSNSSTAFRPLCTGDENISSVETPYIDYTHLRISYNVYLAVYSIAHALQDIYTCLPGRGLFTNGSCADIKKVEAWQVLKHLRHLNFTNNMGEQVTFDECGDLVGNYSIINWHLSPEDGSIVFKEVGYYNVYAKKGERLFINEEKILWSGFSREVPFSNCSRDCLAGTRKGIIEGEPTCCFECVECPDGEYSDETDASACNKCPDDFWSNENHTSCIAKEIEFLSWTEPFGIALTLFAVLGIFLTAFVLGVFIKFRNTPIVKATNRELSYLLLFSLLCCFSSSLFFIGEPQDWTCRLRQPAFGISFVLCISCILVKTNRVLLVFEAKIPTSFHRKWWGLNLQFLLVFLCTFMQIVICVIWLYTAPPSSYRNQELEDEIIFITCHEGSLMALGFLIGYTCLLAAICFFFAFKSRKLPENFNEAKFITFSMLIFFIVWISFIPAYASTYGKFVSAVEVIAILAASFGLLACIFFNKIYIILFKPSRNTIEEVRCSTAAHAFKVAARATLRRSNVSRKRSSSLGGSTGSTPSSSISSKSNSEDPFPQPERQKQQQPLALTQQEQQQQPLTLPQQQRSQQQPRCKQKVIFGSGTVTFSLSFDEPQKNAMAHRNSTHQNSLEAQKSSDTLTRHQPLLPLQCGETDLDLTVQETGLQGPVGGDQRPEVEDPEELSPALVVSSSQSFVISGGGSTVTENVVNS
Method: (§1) Fluo-4 is a fluorescent indicator for intracellular calcium and allows for determination of changes in the intracellular calcium concentration, in particular an increase in response to receptor activation occurring after ligand addition.
(§2) HEK293 cells stably expressing Gα16-gustducin 44 were used as host cells and transfected with various constructs as described in example 4.
(§3) Black, clear-bottom 96-well plates were used for all assays. They were seeded the day before with 8500 transfected cells per well and maintained at 37° C. overnight in an a growth medium appropriate for the cells used. For HEK293 cells, Dulbecco's Modified Eagle medium containing high glucose, L-glutamine, pyroxidine hydrochloride, and supplemented with 10% fetal bovine serum was used for growth and maintenance of the HEK293 cells.
(§4) At the time of the assay, the growth medium was discarded and cells were incubated for 1 hour (at 37° C. in the dark) with 50 μl of a calcium assay solution consisting of 1.5 μM Fluo-4 AM (Molecular Probes™, Invitrogen, US) and 2.5 μM probenicid (Sigma-Aldrich) dissolved in a reduced calcium C1 buffer solution. Reduced calcium C1 buffer solution contains 130 mM NaCl, 5 mM KCl, 10 mM Hepes, 0.5 mM CaCl2 (reduced from 2 mM) and 10 mM glucose (pH 7.4).
(§5) After the initial 1 hour loading period, the plates were washed 5 times with 100 μl per well of reduced calcium C1 buffer using an automated plate washer (BioTek) and after washing, the plate was further incubated for 30 minutes at room temperature in the dark to allow for complete de-esterification of the Fluo-4-AM. The buffer solutions were discarded, the plate was washed 5 times with 100 μl reduced calcium C1 wash buffer and finally the cells were reconstituted in 180 μl of reduced calcium C1 wash buffer.
(§6) For assay reading, the plate was placed in a FLIPR (fluorescence imaging plate reader (FLIPR-Tetra, Molecular Devices)), and receptor activation was initiated following addition of 20 μl of a 10× concentrated ligand stock solution, which were prepared in reduced calcium C1 buffer.
(§7) Fluorescence was continuously monitored for 15 seconds prior to ligand addition and for 105 seconds after ligand addition (45-105 sec may be sufficient).
(§8) Receptor activation is determined by the increase in peak fluorescence (F) normalized to the baseline fluorescence (F0). The data are normalized using the following equation: ΔF/F=(F−F0)/F0, where F is the peak fluorescence signal and F0 is the baseline fluorescence signal, wherein the baseline fluorescence represents the mean fluorescence calculated for the first 10 to 15 seconds prior to ligand addition. […]
As a negative control, mock transfected cells were exposed to the same concentration of ligand and the concentration of calcium traces not corresponding to a signal was determined. […]

[1] = tested on: CSR:T1R1 chimeric homomer; assay: Fluo-4 calcium assay, cells transfected with CSR:T1R1; format: cell-based, human; details: Calcium Chloride 2 mM, 745047-97-6 25 μM, MSG 2.5 mM + IMP 0.2 mM; for CSR:T1R1 AVG (mean ΔF/F): HEK293T/Gα16-gustducin 44 cells, six replicates
Method: as §1, §2, §3, §4, §5, §6, §7
(§9) Receptor activation is determined by the increase in peak fluorescence (F) normalized to the baseline fluorescence (F0). The data are normalized using the following equation: ΔF/F=(F−F0)/F0, where F is the peak fluorescence signal and F0 is the baseline fluorescence signal, wherein the baseline fluorescence represents the mean fluorescence calculated for the first 10 to 15 seconds prior to ligand addition.
(§10) This value obtained corresponds to the calcium increase of the cell in response to a direct or indirect interaction with the transfected receptor (“signal”).
(§11) As a negative control, mock transfected cells were exposed to the same concentration of ligand and the concentration of calcium traces not corresponding to a signal was determined.
(§12) HEK293T cells that stably express Gα16-gustducin 44 (formed as described in WO 2004/055048) were transfected with the CSR::T1R1, CSR::T1R3 constructs, or with hCaSR as follows:
On day 0, the HEK293T/Gα16-gustducin 44 cells were plated in 96-well black, clear-bottom plates at a density of 8500 cells per well and grown overnight in selective growth media. […]

[2] = tested on: Mock transfected HEK293T/Gα16-gustducin 44 cells; assay: Fluo-4 calcium assay, mock transfection (negative control); format: cell-based; details: Calcium Chloride 2 mM, 745047-97-6 25 μM; for Neg. control (mock transfection) AVG (mean ΔF/F): mock transfected cells, six replicates, MSG 2.5 mM + IMP 0.2 mM
Method: as §1, §2, §3
as §4, with “Reduced calcium C1 buffer solution contains 130 mM NaCl, 5 mM KCl, 10 mM Hepes, 0.5 mM CaCl2 (reduced from 2 mM) and 10 mM glucose (pH 7.4).” left out
as §6, §7, §8, §11
The intracellular calcium response following stimulation with various ligands was determined in HEK293T cells stably expressing Gα16-gustducin 44 and transfected with CSR:T1R1 and/or CSR:T1R3 chimeric constructs. […]
The transfections were performed as described in example 4. Results were calculated as described in example 1 (data indicates the normalized increase in fluorescence over baseline after stimulation (ΔF/F); the mean (AVG) and the ±Standard deviation (STD) of six replicate experiments is given). […]
The calcium mobilization signals obtained are increase in peak fluorescence (F) normalized to the baseline fluorescence (F0). […]

[3] = tested on: CSR:T1R1/CSR:T1R3 chimeric heterodimer; assay: Fluo-4 calcium assay, cells transfected with CSR:T1R1 and CSR:T1R3; format: cell-based, human; details: for response (calcium signal) of CSR:T1R1/CSR:T1R3 chimeric heterodimer, in words / CSR:T1R1/CSR:T1R3 AVG (mean ΔF/F): Calcium Chloride 2 mM, 745047-97-6 25 μM; for CSR:T1R1/CSR:T1R3 AVG (mean ΔF/F): HEK293T/Gα16-gustducin 44 cells, six replicates, MSG 2.5 mM + IMP 0.2 mM; for signal in CSR:T1R1/CSR:T1R3 cells as magnitude of signals obtained in cells transfected with the hCaSR receptor: relative to hCaSR transfected cells
Method: as §1, §2, §3, §4, §5, §6, §7, §9, §10, §11, §12
On day 0, the HEK293T/Gα16-gustducin 44 cells were plated in 96-well black, clear-bottom plates at a density of 8500 cells per well and grown overnight in selective growth media. On day 1, the media was changed to an antibiotic-free and serum-free growth medium and the cells were transfected using 75 ng each of CSR:T1R1 and CSR:T1R3 (total 150 ng), T1R1 and T1R3 (total 150 ng), or 75 ng hCaSR vector construct DNA and 0.3 μl of Lipofectamine 2000 (Invitrogen).
For transfection of either the CSR:T1R1/CSR:T1R3 heterodimer, 75 ng of each vector construct was combined for a total of 150 ng per pair and used together with 0.3 μl of Lipofectamine 2000. 75 ng of hCaSR vector DNA was used for this calcium-sensing monomeric GPCR […]

| Compound | hCaSR AVG (mean ΔF/F) (hCaSR) | response (calcium signal) of CSR:T1R1 chimeric homomer, in words [1] | CSR:T1R1 AVG (mean ΔF/F) [1] | response in mock transfected negative control, in words [2] | Neg. control (mock transfection) AVG (mean ΔF/F) [2] | response (calcium signal) of CSR:T1R1/CSR:T1R3 chimeric heterodimer, in words [3] | CSR:T1R1/CSR:T1R3 AVG (mean ΔF/F) [3] | signal in CSR:T1R1/CSR:T1R3 cells as magnitude of signals obtained in cells transfected with the hCaSR receptor [3] | response (calcium signal) of hCaSR, in words (hCaSR; listed as calcium) | response (calcium signal) of hCaSR, in words (hCaSR; listed as calcium chloride) | response (calcium signal) of CSR:T1R1 chimeric homomer, in words ([1]; listed as calcium) | response (calcium signal) of CSR:T1R1 chimeric homomer, in words ([1]; listed as calcium chloride) | response (calcium signal) of CSR:T1R1/CSR:T1R3 chimeric heterodimer, in words ([3]; listed as calcium) | response (calcium signal) of CSR:T1R1/CSR:T1R3 chimeric heterodimer, in words ([3]; listed as calcium chloride) |
| --- | --- | --- | --- | --- | --- | --- | --- | --- | --- | --- | --- | --- | --- | --- |
| COc1cc(C)ccc1CNC(=O)C(=O)NCCc1ccccn1 [745047-97-6-oxalamide, N-(2-Methoxy-4-methyl-benzyl)-N′-(2-pyridin-2-yl-ethyl)-oxalamide] | 0.04 | significant increase of the signal; also recorded: activated | 0.31 | No response | 0.03 | significant increase of the signal; also recorded: significantly higher the background signals; also recorded: activated | 0.43 | approximately 50% | – | – | – | – | – | – |
| [Ca+2].[Cl-].[Cl-] [Calcium, Calcium Chloride] | 1.44 | – | 0.78 | No response | 0.24 | – | 0.72 | approximately 50% | react to calcium | responded | react to calcium; also recorded: activated | significant increase of the signal | react to calcium; also recorded: activated | significant increase of the signal; also recorded: significantly higher the background signals |
